Experimental data taken from patent publication US20130045991A1, “NEUROPROTECTIVE MODULATION OF NMDA RECEPTOR SUBTYPE ACTIVITIES” (THE UNIVERSITY OF BRITISH COLUMBIA, priority 2005, published 2013).

Columns and labels:
Format in all cases: cell-based, rat
[1] = system: cortical cultures; assay: Oxygen and glucose deprivation (OGD), in vitro stroke model; conditions: 1 h OGD; NVP-AAM077 0.4 μM or Ro 25-6981 0.5 μM; apoptosis 20 h after OGD
Text: Taking advantage of the finding of the opposing roles of NR2A- and NR2B-containing NMDA receptors in mediating cell survival and death, one aspect of the invention involves modulating the activity of the two subpopulations of receptors to ameliorate neuronal injury following acute brain insults, such as stroke and brain trauma. To illustrate this aspect of the invention, we employed a well-characterized in vitro stroke model, oxygen and glucose deprivation (OGD) (Goldberg et al., 1993; Aarts et al., 2002). Cortical cultures of 11-14 DIV were exposed to an anaerobic atmosphere for 1 h in a glucose-free solution in the absence or the presence of either NVP-AAM077 (0.4 μM) or Ro 25-6981 (0.5 μM). Neuronal apoptosis was quantitatively determined 20 h after OGD.
To visualize injured neurons, Hoechst-33342 (10 μg/ml) was added to the culture medium 20 h after treatments and incubated for 45 min at 37 °C. Images were taken with a Leica DMIRE2 fluorescence microscope. Quantitative assessment of neuronal apoptosis was performed 20 h following treatments using a Cell Death Detection ELISAPLUS Kit (Roche Applied Science). Absorbance readings were determined using a spectrophotometric microplate reader. Data analyses were carried out according to the manufacturer's instructions. Data are expressed as the difference in apoptosis relative to control and are expressed as a percentage. […]

[2] = system: cortical neurons; assay: Apoptosis by NMDA after blockade of synaptic NMDA receptors (extrasynaptic receptors); conditions: synaptic receptors blocked with MK-801 plus bicuculline; NMDA 50 μM plus 10 μM glycine 20 min; assayed 20 h after
Experimental: In accordance with various aspect of the invention, we have illustrated the role of extrasynaptic NR2A- and NR2B-containing receptors in mediating NMDA-induced cell survival and death. After a specific blockade of synaptic NMDA receptors and wash-out of bicuculline and MK-801, the neurons were treated with NMDA (50 μM plus 10 μM glycine) for 20 min in the absence or presence of NVP-AAM077 (0.4 μM) or Ro 25-6981 (0.5 μM). […] Thus, as with synaptic NMDA receptors, activation of extrasynaptic NR2A-containing receptors has a role in promoting cell survival, counteracting NR2B-containing receptor-mediated neuronal apoptosis. […]
(§1) To visualize injured neurons, Hoechst-33342 (10 μg/ml) was added to the culture medium 20 h after treatments and incubated for 45 min at 37 °C. Images were taken with a Leica DMIRE2 fluorescence microscope. Quantitative assessment of neuronal apoptosis was performed 20 h following treatments using a Cell Death Detection ELISAPLUS Kit (Roche Applied Science). Absorbance readings were determined using a spectrophotometric microplate reader. […] Data are expressed as the difference in apoptosis relative to control and are expressed as a percentage.

[3] = system: cortical neurons; assay: Neuronal apoptosis with bicuculline-enhanced activation of synaptic NMDA receptors; conditions: bicuculline 50 μM, 4 h; for neuronal apoptosis on co-application with bicuculline: apoptosis quantified 20 h after
Experimental: The function of the NR2A and NR2B synaptic receptor subpopulations in mediating neuronal survival or death is also illustrated herein, as follows. To increase activation of synaptic NMDA receptors by synaptically released glutamate, neurons were incubated with the GABAA receptor antagonist bicuculline (50 μM, 4 h). Bicuculline increases neuronal excitation by blocking the GABAA receptor-mediated synaptic inhibition and thereby enhances action potential-dependent synchronized release of glutamate from presynaptic terminals. Neuronal apoptosis was quantified 20 h following the treatments. […] The NR2A blockade-induced neuronal apoptosis was demonstrably mediated by synaptic NR2B-containing receptors, as it was prevented in the presence of Ro 25-6981 (p<0.01; FIG. 3B).
Dissociated cultures of cortical neurons were prepared from 18-day Sprague-Dawley rat embryos as described previously (Mielke et al., 2005). To obtain mixed cortical cultures enriched with neurons, uridine (10 μM) and 5-Fluor-2′-deoxyuridine (10 μM) were added to the culture medium at 3 DIV and maintained for 48 h, to inhibit non-neuronal cell proliferation, before the cultures were shifted back to the normal culture medium. Mature neurons (11-14 DIV) were used for experiments. To induce neuronal apoptosis, cortical cultures were stimulated with NMDA (50 μM) and glycine (10 μM) for 20 min, or STS (100 nM) for 1 h in Mg2+-free extracellular solution (ECS) containing (mM): 25 HEPES acid, 140 NaCl, 33 glucose, 5.4 KCl and 1.3 CaCl2, with pH 7.35 and osmolarity 320-330 mOsm. […]
as §1

[4] = system: cortical neurons; assay: Neuronal apoptosis under basal, non-stimulated conditions; conditions: no bicuculline stimulation
Experimental: Under bicuculline incubation, the increased action potential-dependent synaptic release of glutamate may lead to activation of extrasynaptic NMDA receptors by glutamate spillover.
To visualize injured neurons, Hoechst-33342 (10 μg/ml) was added to the culture medium 20 h after treatments and incubated for 45 min at 37 °C. Images were taken with a Leica DMIRE2 fluorescence microscope. Quantitative assessment of neuronal apoptosis was performed 20 h following treatments using a Cell Death Detection […] Kit (Roche Applied Science). Absorbance readings were determined using a spectrophotometric microplate reader. Data analyses were carried out according to the manufacturer's instructions. Data are expressed as the difference in apoptosis relative to control and are expressed as a percentage.

[5] = system: Akt (phospho-Ser473); assay: Western blotting of Akt phosphorylation after NMDA treatment; conditions: NMDA-treated neurons, western blot
Experimental: Twelve hours after treatments, proteins were extracted from neurons using a lysis buffer composed of 150 mM NaCl, 50 mM Tris (pH 7.4), 0.1% SDS, 1% NP-40, 0.5% sodium deoxycholate, 1 mM EDTA, 1 mM Na3VO4, 10 μg/ml each of leupeptin and aprotinin, and 1 mM phenylmethylsulfonyl fluoride. To determine the state of Akt phosphorylation, the samples were separated on 10% SDS-PAGE gels, transferred to PVDF membrane and immunoblotted with anti-phosphoSer473-Akt antibody (Cell Signaling). The same membrane was stripped and reprobed with anti-Akt antibody (Cell Signaling). To determine the activity of caspase-3, the samples were separated on 15% SDS-PAGE gels and transferred to PVDF membranes, which were then sequentially probed with antibodies against cleaved caspase-3 (Asp175, Cell Signaling) and β-tubulin (Sigma).

With `C[C@@H](CN1CCC(Cc2ccccc2)CC1)[C@@H](O)c1ccc(O)cc1` (relative stereo) [Ro 25-6981, [R-(R*,S*)]-α-(4-Hydroxyphenyl)-β-methyl-4-(phenylmethyl)-1-piperidinepropanol] the “effect on OGD-induced neuronal apoptosis” value [1] was “drastically reduced”, the “effect on apoptosis elicited by NMDA via extrasynaptic NMDA receptors” value [2] was “prevented” and the “effect on NR2A blockade (NVP-AAM077 + bicuculline)-induced neuronal apoptosis” value ([3]; plus NVP-AAM077) was “prevented”. The “neuronal apoptosis on co-application with bicuculline” value [3] was “did not cause apoptotic cell death”, the “effect on NVP-AAM077 (48 h)-induced apoptosis” value [4] was “prevented” and the “neuronal apoptosis after incubation for 48 h” value [4] was “did not increase neuronal apoptosis”.
`C[C@H](NC(c1cccc2[nH]c(=O)c(=O)[nH]c12)P(=O)(O)O)c1ccc(Br)cc1` (stereo partly drawn) [NVP-AAM077] was tested, and the “effect on OGD-induced neuronal apoptosis” value [1] was “significantly enhanced OGD-induced neuronal apoptosis”, the “effect on apoptosis elicited by NMDA via extrasynaptic NMDA receptors” value [2] was “potentiated NMDA-mediated apoptosis” and the “neuronal apoptosis on co-application with bicuculline” value [3] was “significantly increased neuronal apoptosis”. The “neuronal apoptosis after incubation for 4 h” value [4] was “failed to increase neuronal apoptosis”, the “neuronal apoptosis after incubation for 48 h” value [4] was “significant increase in neuronal apoptosis” and the “effect on NMDA-induced reduction in Akt kinase activity (S473 dephosphorylation)” value [5] was “slightly increased the NMDA-induced reduction in Akt activity”.
